From patent publication US20220228985A1, “FLUORESCENT COMPOSITION FOR DETECTING BIOLOGICAL MATERIAL” (Bioacts Corporation, priority 2021, published 2022)

Test system: red blood cells
Experiment: Microscopic analysis of hemolytic efficacy of surfactant compound
Assay type: cell-based
Settings: E-check (low concentration), microscope X200 DIC, control PBS, FIG. 4
Procedure: Microscopic analysis was performed to visually confirm the blood hemolysis effect of the blood analysis reagent prepared with the compound of Chemical Formula 3 and the compound of Chemical Formula 4 as the surfactant compound. The blood analysis reagent prepared in E-check (low concentration), a quality control reagent, was treated and microscopic analysis was performed. The analysis was performed with a Nikon ECLIPSE microscope, and measured under X200 DIC filter conditions. As a control, a sample obtained by treating PBS in an E-check reagent was used.

Row | SMILES | hemolysis of red blood cells
1 | CCCCCCCCCCCCCCn1cc(COCCOCCOCCOCCOCCOCCOCCOCCOCCOCCOCCOCCOCCOCCOCCOCCOCCOCCOCCOCCOCCO)nn1 [Chemical Formula 4] | excellent efficacy in hemolysis of red blood cells
2 | CCCCCCCCn1cc(COCCOCCOCCOCCOCCOCCOCCOCCOCCOCCO)nn1 [Compound 3b] | most cleanly hemolyzed
